Consider 1 molecule from PMC5218480 (PLoS ONE, 2017).

The test system of the assay is MV-4-11 cells. Description: Gene expression microarray analysis (Affymetrix PrimeView) and GSEA. The following applies: ProbeSet 11759094_a_at; LIST D. Further details: RFU PODN (11730768_x_at) / Fold change /veh PODN (11730768_x_at) / RFU LINC00158 (11744669_a_at) / Fold change /veh LINC00158 (11744669_a_at) / RFU DUSP10 (11751237_a_at) / Fold change /veh DUSP10 (11751237_a_at) / RFU ID3 (11757404_x_at) / Fold change /veh ID3 (11757404_x_at) / RFU PLEKHG5 (11737974_s_at) / Fold change /veh PLEKHG5 (11737974_s_at) / RFU LRRC4B (11730491_at) / Fold change /veh LRRC4B (11730491_at) / RFU GIMAP4 (11747438_a_at) / Fold change /veh GIMAP4 (11747438_a_at) / RFU KRT8 (11758183_x_at) / Fold change /veh KRT8 (11758183_x_at) / RFU CNN1 (11734310_a_at) / Fold change /veh CNN1 (11734310_a_at) / RFU VPS37D (11726825_at) / Fold change /veh VPS37D (11726825_at) / RFU C10orf10 (11716522_x_at) / Fold change /veh C10orf10 (11716522_x_at) / RFU KIR2DL2 /// KIR2DL4 /// KIR2DL5A /// KIR2DL5B /// KIR2DS1 /// KIR2DS2 /// KIR2DS3 /// KIR2DS4 /// KIR3DL3 /// KIR3DL3 /// KIR3DS1 (11738374_at) / Fold change /veh KIR2DL2 /// KIR2DL4 /// KIR2DL5A /// KIR2DL5B /// KIR2DS1 /// KIR2DS2 /// KIR2DS3 /// KIR2DS4 /// KIR3DL3 /// KIR3DL3 /// KIR3DS1 (11738374_at) / RFU C1QL1 (11718748_at) / Fold change /veh C1QL1 (11718748_at) / RFU TMPRSS4 (11747572_a_at) / Fold change /veh TMPRSS4 (11747572_a_at) / RFU HAMP (11756126_x_at) / Fold change /veh HAMP (11756126_x_at) / RFU RNFT2 (11725882_a_at) / Fold change /veh RNFT2 (11725882_a_at) / RFU NR4A2 (11747474_a_at) / Fold change /veh NR4A2 (11747474_a_at) / RFU ABCC12 (11746883_a_at) / Fold change /veh ABCC12 (11746883_a_at) / RFU TMEM136 (11760407_x_at) / Fold change /veh TMEM136 (11760407_x_at) / RFU CLDN22 /// WWC2 (11732394_at) / Fold change /veh CLDN22 /// WWC2 (11732394_at) / RFU HLA-DPB1 (11760878_x_at) / Fold change /veh HLA-DPB1 (11760878_x_at) / RFU SPINT1 (11716480_a_at) / Fold change /veh SPINT1 (11716480_a_at) / RFU GAP43 (11754022_s_at) / Fold change /veh GAP43 (11754022_s_at) / RFU A4GNT (11735810_at) / Fold change /veh A4GNT (11735810_at) / RFU PRB3 (11715151_x_at) / Fold change /veh PRB3 (11715151_x_at) / RFU TUBB4B (11761932_at) / Fold change /veh TUBB4B (11761932_at) / RFU CAPN14 (11732068_a_at) / Fold change /veh CAPN14 (11732068_a_at) / RFU TMCC2 (11721928_a_at) / Fold change /veh TMCC2 (11721928_a_at) / RFU IRGQ (11745062_a_at) / Fold change /veh IRGQ (11745062_a_at) / RFU FAM174B (11720279_a_at) / Fold change /veh FAM174B (11720279_a_at) / RFU TMPRSS4 (11748680_a_at) / Fold change /veh TMPRSS4 (11748680_a_at) / RFU FAM212B (11763350_a_at) / Fold change /veh FAM212B (11763350_a_at) / RFU PLEKHG5 (11743358_a_at) / Fold change /veh PLEKHG5 (11743358_a_at) / RFU ZSCAN30 (11745921_a_at) / Fold change /veh ZSCAN30 (11745921_a_at) / RFU CMKLR1 (11741424_a_at) / Fold change /veh CMKLR1 (11741424_a_at) / RFU LOC101060620 /// MAPK8IP1 (11723275_at) / Fold change /veh LOC101060620 /// MAPK8IP1 (11723275_at) / RFU SPTSSB (11747773_x_at) / Fold change /veh SPTSSB (11747773_x_at) / RFU PRSS12 (11739890_at) / Fold change /veh PRSS12 (11739890_at) / RFU BIN1 (11741810_x_at) / Fold change /veh BIN1 (11741810_x_at) / RFU WNT11 (11732464_a_at) / Fold change /veh WNT11 (11732464_a_at) / RFU C10orf10 (11716521_a_at) / Fold change /veh C10orf10 (11716521_a_at) / RFU C5orf56 (11738089_at) / Fold change /veh C5orf56 (11738089_at) / RFU CYB561 (11721691_x_at) / Fold change /veh CYB561 (11721691_x_at) / RFU ANKRD19P (11752326_a_at) / Fold change /veh ANKRD19P (11752326_a_at) / RFU OR2T12 /// OR2T33 /// OR2T8 (11738714_s_at) / Fold change /veh OR2T12 /// OR2T33 /// OR2T8 (11738714_s_at) / RFU VCAN (11748164_a_at) / Fold change /veh VCAN (11748164_a_at) / RFU JSRP1 (11732532_at) / Fold change /veh JSRP1 (11732532_at) / RFU KRTAP10-11 (11738290_x_at) / Fold change /veh KRTAP10-11 (11738290_x_at) / RFU MYO3A (11730013_a_at) / Fold change /veh MYO3A (11730013_a_at) / RFU EBF3 (11725865_a_at) / Fold change /veh EBF3 (11725865_a_at) / RFU CAMK2N1 (11719241_x_at) / Fold change /veh CAMK2N1 (11719241_x_at) / RFU C5orf56 (11738088_a_at) / Fold change /veh C5orf56 (11738088_a_at) / RFU OLFML3 (11715873_a_at) / Fold change /veh OLFML3 (11715873_a_at) / RFU LOC100653217 /// NTM (11731650_a_at) / Fold change /veh LOC100653217 /// NTM (11731650_a_at) / RFU MAPK11 (11762145_a_at) / Fold change /veh MAPK11 (11762145_a_at) / RFU FIZ1 (11724087_x_at) / Fold change /veh FIZ1 (11724087_x_at) / RFU OASL (11726364_x_at) / Fold change /veh OASL (11726364_x_at) / RFU SOX15 (11748057_x_at) / Fold change /veh SOX15 (11748057_x_at) / RFU CD79A (11719716_a_at) / Fold change /veh CD79A (11719716_a_at) / RFU HIST1H1D (11736915_at) / Fold change /veh HIST1H1D (11736915_at) / RFU CASKIN2 (11723855_a_at) / Fold change /veh CASKIN2 (11723855_a_at) / RFU LOC730098 (11760151_x_at) / Fold change /veh LOC730098 (11760151_x_at) / RFU OR4N2 (11742367_at) / Fold change /veh OR4N2 (11742367_at) / RFU PRRT2 (11749266_a_at) / Fold change /veh PRRT2 (11749266_a_at) / RFU SNX32 (11753110_a_at) / Fold change /veh SNX32 (11753110_a_at) / RFU CDHR5 (11726645_a_at) / Fold change /veh CDHR5 (11726645_a_at) / RFU RCAN1 (11760418_a_at) / Fold change /veh RCAN1 (11760418_a_at) / RFU FAM167A (11723789_a_at) / Fold change /veh FAM167A (11723789_a_at) / RFU FAM26E (11764081_at) / Fold change /veh FAM26E (11764081_at) / RFU ISYNA1 (11749810_s_at) / Fold change /veh ISYNA1 (11749810_s_at) / RFU ACY1 (11761880_at) / Fold change /veh ACY1 (11761880_at) / RFU 11764098_at / Fold change /veh 11764098_at / RFU SAMD14 (11745864_x_at) / Fold change /veh SAMD14 (11745864_x_at) / RFU NPB (11741838_a_at) / Fold change /veh NPB (11741838_a_at) / RFU TMPRSS6 (11731388_a_at) / Fold change /veh TMPRSS6 (11731388_a_at) / RFU KRTAP10-2 (11738614_at) / Fold change /veh KRTAP10-2 (11738614_at) / RFU ARHGAP8 /// PRR5-ARHGAP8 (11727945_x_at) / Fold change /veh ARHGAP8 /// PRR5-ARHGAP8 (11727945_x_at) / RFU KRTAP5-7 /// NADSYN1 (11734609_at) / Fold change /veh KRTAP5-7 /// NADSYN1 (11734609_at) / RFU RASL12 (11751679_a_at) / Fold change /veh RASL12 (11751679_a_at) / RFU CDKN2B (11736163_a_at) / Fold change /veh CDKN2B (11736163_a_at) / RFU PRF1 (11729649_at) / Fold change /veh PRF1 (11729649_at) / RFU, ZNF638 /// ZNF638-IT1 / Fold change vs veh, ZNF638 /// ZNF638-IT1 / RFU, PANK3 / Fold change vs veh, PANK3 / RFU, SH3YL1 / Fold change vs veh, SH3YL1 / RFU, ZEB2 / Fold change vs veh, ZEB2 / RFU, NRIP1 / Fold change vs veh, NRIP1 / RFU, PTTG1IP / Fold change vs veh, PTTG1IP / RFU, CAPN2 / Fold change vs veh, CAPN2 / RFU, MED14 / Fold change vs veh, MED14 / RFU, SNORA58 / Fold change vs veh, SNORA58 / RFU, C1orf63 / Fold change vs veh, C1orf63 / RFU, LRRFIP1 / Fold change vs veh, LRRFIP1 / RFU, NDUFAF7 / Fold change vs veh, NDUFAF7 / RFU, SLC12A2 / Fold change vs veh, SLC12A2 / RFU, IBTK / Fold change vs veh, IBTK / RFU, ESF1 / Fold change vs veh, ESF1 / Fold change vs veh, TMEM50B / RFU, TAOK1 / Fold change vs veh, TAOK1 / RFU, ACBD3 / Fold change vs veh, ACBD3 / RFU, TMA16 / Fold change vs veh, TMA16 / RFU, RWDD3 / Fold change vs veh, RWDD3 / RFU, BCAT1 / Fold change vs veh, BCAT1 / RFU, EDEM3 / Fold change vs veh, EDEM3 / RFU, TMEM33 / Fold change vs veh, TMEM33 / RFU, WDR75 / Fold change vs veh, WDR75 / RFU, AHCTF1 / Fold change vs veh, AHCTF1 / RFU, TFRC / Fold change vs veh, TFRC / RFU, ZDHHC17 / Fold change vs veh, ZDHHC17 / RFU, NOM1 / Fold change vs veh, NOM1 / RFU, ARL8B / Fold change vs veh, ARL8B / RFU, ZBTB11 / Fold change vs veh, ZBTB11 / RFU, TAMM41 / Fold change vs veh, TAMM41 / RFU, KIAA1704 /// LOC100996395 / Fold change vs veh, KIAA1704 /// LOC100996395 / RFU, ING1 / Fold change vs veh, ING1 / RFU, TRMT61B / Fold change vs veh, TRMT61B / RFU, FUBP3 / Fold change vs veh, FUBP3 / RFU, TP53 / Fold change vs veh, TP53 / RFU, TNKS2 / Fold change vs veh, TNKS2 / RFU, ZFP14 / Fold change vs veh, ZFP14 / RFU, ACTR2 / Fold change vs veh, ACTR2 / RFU, PPP3R1 / Fold change vs veh, PPP3R1 / RFU, PIK3R1 / Fold change vs veh, PIK3R1 / RFU, HNRNPA1 / Fold change vs veh, HNRNPA1 / RFU, RNF170 / Fold change vs veh, RNF170 / RFU, ZNF28 / Fold change vs veh, ZNF28 / RFU, RNGTT / Fold change vs veh, RNGTT / RFU, OGT / Fold change vs veh, OGT / RFU, BRD1 / Fold change vs veh, BRD1 / RFU, MARS / Fold change vs veh, MARS / RFU, ZNF655 / Fold change vs veh, ZNF655 / RFU, FAHD1 / Fold change vs veh, FAHD1 / RFU, BDP1 / Fold change vs veh, BDP1 / RFU, LRRCC1 / Fold change vs veh, LRRCC1 / RFU, ARID1A / Fold change vs veh, ARID1A / RFU, ZNF146 / Fold change vs veh, ZNF146 / RFU, ZNF330 / Fold change vs veh, ZNF330 / RFU, GPN3 / Fold change vs veh, GPN3 / RFU, C9orf123 / Fold change vs veh, C9orf123 / RFU, N4BP2L2 / Fold change vs veh, N4BP2L2 / RFU, ARFIP1 / Fold change vs veh, ARFIP1 / RFU, FAM179B / Fold change vs veh, FAM179B / RFU, BCL10 / Fold change vs veh, BCL10 / RFU, UHRF1BP1L / Fold change vs veh, UHRF1BP1L / RFU, BET1 / Fold change vs veh, BET1 / RFU, CNOT2 / Fold change vs veh, CNOT2 / RFU, ZNF268 / Fold change vs veh, ZNF268 / Fold change vs veh, ZNF507 / RFU, DGCR2 / Fold change vs veh, DGCR2 / RFU, WDSUB1 / Fold change vs veh, WDSUB1 / Fold change vs veh, HSP90B1 /// MIR3652 / RFU, ADSS / Fold change vs veh, ADSS / RFU, GK / Fold change vs veh, GK / RFU, ZNF148 / Fold change vs veh, ZNF148 / RFU, TAF9 / Fold change vs veh, TAF9 / RFU, SLC1A5 / Fold change vs veh, SLC1A5 / RFU, SLMO2 / Fold change vs veh, SLMO2 / RFU, ABCC4 / Fold change vs veh, ABCC4 / RFU, LOC101060439 /// RAP1B / Fold change vs veh, LOC101060439 /// RAP1B / RFU, RFX7 / Fold change vs veh, RFX7 / RFU, GTPBP10 / Fold change vs veh, GTPBP10 / RFU, CNEP1R1 / Fold change vs veh, CNEP1R1 / RFU, BIVM-ERCC5 /// ERCC5 / Fold change vs veh, BIVM-ERCC5 /// ERCC5 / RFU, ILF3 / Fold change vs veh, ILF3 / RFU 11762660_at / Fold change /veh 11762660_at / RFU VCAN (11757783_s_at) / Fold change /veh VCAN (11757783_s_at) / RFU DDX43 (11728927_at) / Fold change /veh DDX43 (11728927_at) / RFU KRT8 (11758188_x_at) / Fold change /veh KRT8 (11758188_x_at) / RFU NKD1 (11759106_at) / Fold change /veh NKD1 (11759106_at) / RFU SRD5A1 (11742802_a_at) / Fold change /veh SRD5A1 (11742802_a_at) / RFU TPSAB1 /// TPSB2 (11721975_s_at) / Fold change /veh TPSAB1 /// TPSB2 (11721975_s_at) / RFU GSTM3 (11746129_a_at) / Fold change /veh GSTM3 (11746129_a_at) / RFU IL23R (11737362_x_at) / Fold change /veh IL23R (11737362_x_at) / RFU TMEM51 (11727254_a_at) / Fold change /veh TMEM51 (11727254_a_at) / RFU PIWIL2 (11732686_x_at) / Fold change /veh PIWIL2 (11732686_x_at) / RFU ORM1 (11744905_x_at) / Fold change /veh ORM1 (11744905_x_at) / RFU CCDC152 (11743942_at) / Fold change /veh CCDC152 (11743942_at) / RFU ECM1 (11717891_a_at) / Fold change /veh ECM1 (11717891_a_at) / RFU IL23R (11748794_a_at) / Fold change /veh IL23R (11748794_a_at) / RFU TNFAIP8L3 (11732012_x_at) / Fold change /veh TNFAIP8L3 (11732012_x_at) / RFU MBOAT4 (11741988_at) / Fold change /veh MBOAT4 (11741988_at) / RFU 11764193_at / Fold change /veh 11764193_at / RFU TMEM53 (11763286_at) / Fold change /veh TMEM53 (11763286_at) / RFU MAGEB2 (11727129_at) / Fold change /veh MAGEB2 (11727129_at) / RFU TMEM200A (11744735_a_at) / Fold change /veh TMEM200A (11744735_a_at) / RFU CCDC152 (11751479_a_at) / Fold change /veh CCDC152 (11751479_a_at) / RFU FAM211A (11726209_a_at) / Fold change /veh FAM211A (11726209_a_at) / RFU RGS16 (11746705_a_at) / Fold change /veh RGS16 (11746705_a_at) / RFU VCAN (11755009_s_at) / Fold change /veh VCAN (11755009_s_at) / RFU RHOB (11743442_s_at) / Fold change /veh RHOB (11743442_s_at) / RFU RGS16 (11720943_a_at) / Fold change /veh RGS16 (11720943_a_at) / RFU RGS16 (11720944_at) / Fold change /veh RGS16 (11720944_at) / RFU, VPS4B / Fold change vs veh, VPS4B / RFU, CREB1 / Fold change vs veh, CREB1 / RFU, DNAJC13 / Fold change vs veh, DNAJC13 / RFU, GNAQ / Fold change vs veh, GNAQ / RFU, CDK5R1 / Fold change vs veh, CDK5R1 / RFU, ZRANB3 / Fold change vs veh, ZRANB3 / RFU, CUL4A / Fold change vs veh, CUL4A / RFU, CCNY / Fold change vs veh, CCNY / RFU, UFL1 / Fold change vs veh, UFL1 / RFU, COG3 / Fold change vs veh, COG3 / RFU, DIAPH2 / Fold change vs veh, DIAPH2 / RFU, SKA2 / Fold change vs veh, SKA2 / RFU, AFF3 / Fold change vs veh, AFF3 / RFU, LMF1 / Fold change vs veh, LMF1 / RFU, IPO11 / Fold change vs veh, IPO11 / RFU, DFFB / Fold change vs veh, DFFB / RFU, FOXP1 / Fold change vs veh, FOXP1 / RFU, CARD8 / Fold change vs veh, CARD8 / RFU, STRN3 / Fold change vs veh, STRN3 / RFU, ADK / Fold change vs veh, ADK / RFU, RASSF2 / Fold change vs veh, RASSF2 / RFU, WIPF1 / Fold change vs veh, WIPF1 / RFU, LARP1B / Fold change vs veh, LARP1B / RFU, RASA1 / Fold change vs veh, RASA1 / RFU, RB1 / Fold change vs veh, RB1 / RFU, PPFIA1 / Fold change vs veh, PPFIA1 / RFU, MAT2A / Fold change vs veh, MAT2A / RFU, CCT5 / Fold change vs veh, CCT5 / RFU, WDR92 / Fold change vs veh, WDR92 / RFU, CUX1 / Fold change vs veh, CUX1 / RFU, TTC7A / Fold change vs veh, TTC7A / RFU, TMEM135 / Fold change vs veh, TMEM135 / RFU, DEPTOR / Fold change vs veh, DEPTOR / RFU, CPM / Fold change vs veh, CPM / RFU, DNAJB6 / Fold change vs veh, DNAJB6 / RFU, CACNA2D3 / Fold change vs veh, CACNA2D3 / RFU, DTX4 / Fold change vs veh, DTX4 / RFU, TFCP2 / Fold change vs veh, TFCP2 / RFU, GMCL1 /// GMCL1P1 / Fold change vs veh, GMCL1 /// GMCL1P1 / RFU, AEBP2 / Fold change vs veh, AEBP2 / RFU, SNHG1 /// SNORD22 /// SNORD25 /// SNORD26 /// SNORD27 /// SNORD28 /// SNORD29 /// SNORD31 / Fold change vs veh, SNHG1 /// SNORD22 /// SNORD25 /// SNORD26 /// SNORD27 /// SNORD28 /// SNORD29 /// SNORD31 / Fold change (Aza/veh), C12orf56 (ProbeSet 11735607_a_at) / Fold change (ACY-1035/veh), C12orf56 (ProbeSet 11735607_a_at) / Fold change (Aza/veh), FGFR1OP (ProbeSet 11751329_s_at) / Fold change (ACY-1035/veh), FGFR1OP (ProbeSet 11751329_s_at) / Fold change (Aza/veh), VPS36 (ProbeSet 11739960_a_at) / Fold change (ACY-1035/veh), VPS36 (ProbeSet 11739960_a_at) / RFU SYPL1 (11715823_x_at) / Fold change /veh SYPL1 (11715823_x_at) / RFU IGFBP7 (11715501_s_at) / Fold change /veh IGFBP7 (11715501_s_at) / RFU REEP3 (11722064_at) / Fold change /veh REEP3 (11722064_at) / RFU IGLL1 (11728026_x_at) / Fold change /veh IGLL1 (11728026_x_at): dose or concentration left out as unconfirmed. The assay is classed as cell-based, human.

`Nc1ccc(-c2cccs2)cc1NC(=O)c1ccc2c(c1)cc(C1CC1)n2CCN1CCOCC1` [ACY-1035]: the “RFU, GNAQ” value is 492.28 RFU.
